In US12077503B2, “Substituted cyclic amides and their use as herbicides” (FMC CORPORATION, priority 2015, dated 2024):

Legend:
Assay type in all cases: in vivo
[1] = test system: pigweed (Amaranthus retroflexus); assay: Test A preemergence; conditions: Amaranthus retroflexus, pre-emergence, 240 h, 0 to 100 scale where 0 is no effect and 100 is complete control, read-out: Pigweed plant response rating
[2] = test system: ryegrass, Italian (Italian ryegrass, Lolium multiflorum); assay: Test A preemergence; conditions: Lolium multiflorum, pre-emergence, 240 h, 0 to 100 scale where 0 is no effect and 100 is complete control, read-out: Ryegrass, Italian plant response rating
How it was run: (§1)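 Preemergence directed soil spray on seeded pots, or postemergence application to plants 2–10 cm, one- to two-leaf. Solvent mixture non-phytotoxic, with surfactant. Scored ~10 d later, visually, 0–100 vs untreated.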

[3] = test system: barnyardgrass (Echinochloa crus-galli); assay: Test A preemergence; conditions: Echinochloa crus-galli, pre-emergence, 240 h, 0 to 100 scale where 0 is no effect and 100 is complete control, read-out: Barnyardgrass plant response rating
How it was run: as §1

Kochia (Kochia scoparia) [4] = assay: Test A preemergence; conditions: Bassia scoparia, pre-emergence, 240 h, 0 to 100 scale where 0 is no effect and 100 is complete control, read-out: Kochia plant response rating
How it was run: as §1

[5] = test system: giant foxtail (Setaria faberii); assay: Test A preemergence; conditions: Setaria faberi, pre-emergence, 240 h, 0 to 100 scale where 0 is no effect and 100 is complete control, read-out: Foxtail, Giant plant response rating
How it was run: as §1

[6] = test system: ragweed (common ragweed, Ambrosia elatior); assay: Test A preemergence; conditions: Ambrosia artemisiifolia, pre-emergence, 240 h, 0 to 100 scale where 0 is no effect and 100 is complete control, read-out: Ragweed plant response rating
How it was run: as §1

[7] = test system: Galium (catchweed bedstraw, Galium aparine); assay: Test A postemergence; conditions: Galium, post-emergence, 240 h
How it was run: as §1

[8] = test system: pigweed (Amaranthus retroflexus); assay: Test A postemergence; conditions: Amaranthus retroflexus, post-emergence, 240 h
How it was run: as §1

[9] = test system: ryegrass, Italian (Italian ryegrass, Lolium multiflorum); assay: Test A postemergence; conditions: Lolium multiflorum, post-emergence, 240 h
How it was run: as §1

corn (Zea mays) = assay: Test A postemergence; conditions: Zea mays, post-emergence, 240 h
How it was run: as §1

[10] = test system: barnyardgrass (Echinochloa crus-galli); assay: Test A postemergence; conditions: Echinochloa crus-galli, post-emergence, 240 h
How it was run: as §1

[11] = test system: wheat (Triticum aestivum); assay: Test A postemergence; conditions: Triticum aestivum, post-emergence, 240 h
How it was run: as §1

Kochia (Kochia scoparia) [12] = assay: Test A postemergence; conditions: Bassia scoparia, post-emergence, 240 h
How it was run: as §1

[13] = test system: giant foxtail (Setaria faberii); assay: Test A postemergence; conditions: Setaria faberi, post-emergence, 240 h
How it was run: as §1

[14] = test system: blackgrass (Alopecurus myosuroides); assay: Test A postemergence; conditions: Alopecurus myosuroides, post-emergence, 240 h
How it was run: as §1

[15] = test system: ragweed (common ragweed, Ambrosia elatior); assay: Test A postemergence; conditions: Ambrosia artemisiifolia, post-emergence, 240 h
How it was run: as §1

[16] = test system: ducksalad (Heteranthera limosa); assay: Test B flooded paddy test; conditions: Heteranthera limosa, 250 g ai/ha, Flood; 0 to 100 scale where 0 is no effect and 100 is complete control; read-out: Ducksalad plant response rating
How it was run: (§2)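 2-leaf plants; pots flooded 3 cm over soil; cpd added to paddy water; depth held; greenhouse 13–15 d; visual rating vs controls, 0 = no effect, 100 = complete control.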

[17] = test system: sedge, umbrella (small-flower umbrella sedge, Cyperus difformis); assay: Test B flooded paddy test; conditions: Cyperus difformis, 250 g ai/ha, Flood; 0 to 100 scale where 0 is no effect and 100 is complete control; read-out: Sedge, Umbrella plant response rating
How it was run: as §2

rice (Oryra sativa) = assay: Test B flooded paddy test; conditions: Oryza sativa, 250 g ai/ha, Flood; 0 to 100 scale where 0 is no effect and 100 is complete control; read-out: Rice plant response rating
How it was run: as §2

[18] = test system: barnyardgrass (Echinochloa crus-galli); assay: Test B flooded paddy test; conditions: Echinochloa crus-galli, 250 g ai/ha, Flood; 0 to 100 scale where 0 is no effect and 100 is complete control; read-out: Barnyardgrass plant response rating
How it was run: as §2

[19] = 125 g ai/ha, preemergence, approx. 10 d

CON1CC[C@H](c2ccc(C(F)(F)F)cc2)[C@@H](C(=O)Nc2ccc(F)c(F)c2F)C1=O [Compound 1107]
80%: pest or weed control at 250 g/ha [16]
0%: pest or weed control at 31 g/ha ([1]; 31 g ai/ha, Preemergence) | pest or weed control at 125 g/ha [1, 19] | pest or weed control at 31 g/ha ([2]; 31 g ai/ha, Preemergence) | pest or weed control at 125 g/ha [2, 19] | pest or weed control at 31 g/ha ([3]; 31 g ai/ha, Preemergence) | pest or weed control at 125 g/ha [3, 19] | pest or weed control at 31 g/ha (Kochia (Kochia scoparia) [4]; 31 g ai/ha, Preemergence) | pest or weed control at 125 g/ha (Kochia (Kochia scoparia) [4]; [19]) | pest or weed control at 31 g/ha ([5]; 31 g ai/ha, Preemergence) | pest or weed control at 125 g/ha [5, 19] | pest or weed control at 31 g/ha ([6]; 31 g ai/ha, Preemergence) | pest or weed control at 125 g/ha [6, 19] | pest or weed control at 125 g/ha ([7]; 125 g ai/ha, postemergence, visual injury on 0 to 100 scale (0 no effect, 100 complete control), approx. 10 d, read-out: Galium plant response rating) | pest or weed control at 31 g/ha ([7]; Postemergence, 31 g ai/ha, visual injury after approx. 10 d, 0 to 100 scale, 0 no effect, 100 complete control, read-out: Plant response rating, Galium) | pest or weed control at 125 g/ha ([8]; 125 g ai/ha, postemergence, visual injury on 0 to 100 scale (0 no effect, 100 complete control), approx. 10 d, read-out: Pigweed plant response rating) | pest or weed control at 31 g/ha ([8]; Postemergence, 31 g ai/ha, visual injury after approx. 10 d, 0 to 100 scale, 0 no effect, 100 complete control, read-out: Plant response rating, Pigweed) | pest or weed control at 125 g/ha ([9]; 125 g ai/ha, postemergence, visual injury on 0 to 100 scale (0 no effect, 100 complete control), approx. 10 d, read-out: Ryegrass, Italian plant response rating) | pest or weed control at 31 g/ha ([9]; Postemergence, 31 g ai/ha, visual injury after approx. 10 d, 0 to 100 scale, 0 no effect, 100 complete control, read-out: Plant response rating, Ryegrass, Italian) | plant injury at 125 g/ha (corn (Zea mays); 125 g ai/ha, postemergence, visual injury on 0 to 100 scale (0 no effect, 100 complete control), approx. 10 d, read-out: Corn plant response rating) | Corn plant response rating (crop injury, 0 = no effect, 100 = complete kill) at 31 g/ha (corn (Zea mays); Postemergence, 31 g ai/ha, visual injury after approx. 10 d, 0 to 100 scale, 0 no effect, 100 complete control) | pest or weed control at 125 g/ha ([10]; 125 g ai/ha, postemergence, visual injury on 0 to 100 scale (0 no effect, 100 complete control), approx. 10 d, read-out: Barnyardgrass plant response rating) | pest or weed control at 31 g/ha ([10]; Postemergence, 31 g ai/ha, visual injury after approx. 10 d, 0 to 100 scale, 0 no effect, 100 complete control, read-out: Plant response rating, Barnyardgrass) | plant injury at 125 g/ha ([11]; 125 g ai/ha, postemergence, visual injury on 0 to 100 scale (0 no effect, 100 complete control), approx. 10 d, read-out: Wheat plant response rating) | plant injury at 31 g/ha ([11]; Postemergence, 31 g ai/ha, visual injury after approx. 10 d, 0 to 100 scale, 0 no effect, 100 complete control, read-out: Plant response rating, Wheat) | pest or weed control at 125 g/ha (Kochia (Kochia scoparia) [12]; 125 g ai/ha, postemergence, visual injury on 0 to 100 scale (0 no effect, 100 complete control), approx. 10 d, read-out: Kochia plant response rating) | pest or weed control at 31 g/ha (Kochia (Kochia scoparia) [12]; Postemergence, 31 g ai/ha, visual injury after approx. 10 d, 0 to 100 scale, 0 no effect, 100 complete control, read-out: Plant response rating, Kochia) | pest or weed control at 125 g/ha ([13]; 125 g ai/ha, postemergence, visual injury on 0 to 100 scale (0 no effect, 100 complete control), approx. 10 d, read-out: Foxtail, Giant plant response rating) | pest or weed control at 31 g/ha ([13]; Postemergence, 31 g ai/ha, visual injury after approx. 10 d, 0 to 100 scale, 0 no effect, 100 complete control, read-out: Plant response rating, Foxtail, Giant) | pest or weed control at 125 g/ha ([14]; 125 g ai/ha, postemergence, visual injury on 0 to 100 scale (0 no effect, 100 complete control), approx. 10 d, read-out: Blackgrass plant response rating) | pest or weed control at 31 g/ha ([14]; Postemergence, 31 g ai/ha, visual injury after approx. 10 d, 0 to 100 scale, 0 no effect, 100 complete control, read-out: Plant response rating, Blackgrass) | pest or weed control at 125 g/ha ([15]; 125 g ai/ha, postemergence, visual injury on 0 to 100 scale (0 no effect, 100 complete control), approx. 10 d, read-out: Ragweed plant response rating) | pest or weed control at 31 g/ha ([15]; Postemergence, 31 g ai/ha, visual injury after approx. 10 d, 0 to 100 scale, 0 no effect, 100 complete control, read-out: Plant response rating, Ragweed) | pest or weed control at 250 g/ha [17] | pest or weed control at 250 g/ha (rice (Oryra sativa)) | pest or weed control at 250 g/ha [18]
